Active and inactive are the calls of the source. The rule behind the calls is not given here.
Assays:
[1] = target: Mucin-1 (Homo sapiens) (UniProt P15941); assay: Inhibition of biotinylated MUC1-CD dimerization (unknown origin) assessed as decrease in oligomer formation at 100 uM by streptavidin-HRP based assay relative to control
[2] = system: BT-474; assay: Inhibition of colony formation in human BT474 cells assessed as decrease in colonies at 25 to 75 uM incubated for 2 weeks by crystal violet staining based assay; format: functional, cell-based
[3] = system: MCF7; assay: Induction of cell membrane integrity loss in human MCF7 cells assessed as PI uptake level at 75 uM incubated for 3 days by propidium iodide staining based flow cytometry (reference value: 22%); format: functional
[4] = target: Mucin-1 (Homo sapiens) (UniProt P15941); assay: Inhibition of MUC1-CD dimerization in human MCF10A cells assessed as reduction in MUC1-C levels at 50 to 100 uM incubated for 3 days by immunoblot analysis; format: cell-based
[5] = system: MCF-10A; assay: Induction of cell membrane integrity loss in immortalized human MCF10A cells assessed as PI uptake level at 75 uM incubated for 3 days by propidium iodide staining based flow cytometry (reference value: 23%); format: functional
[6] = system: MCF7; assay: Induction of apoptosis in human MCF7 cells assessed as caspase-9 cleavage at 75 uM incubated for 3 days by immunoblot analysis; format: functional, cell-based
[7] = target: Mucin-1 (Homo sapiens) (UniProt P15941); assay: Inhibition of MUC1 in human BT474 cells assessed as reduction in MUC1-C expression at 25 to 75 uM incubated for 3 days by immunoblot analysis; format: cell-based
[8] = target: Mucin-1 (Homo sapiens) (UniProt P15941); assay: Inhibition of MUC1-CD dimerization (unknown origin) expressed in HEK293 cells assessed as disruption of interaction between Flag-MUC1-CD and GFP-MUC1-CD by coimmunoprecipitation assay; format: cell-based
[9] = system: BT-474; assay: Growth inhibition of human BT474 cells assessed as reduction in cell number up to 150 uM incubated for 3 days by MTS assay; format: functional, cell-based
[10] = system: MCF-10A; assay: Induction of cell membrane integrity loss in immortalized human MCF10A cells assessed as PI uptake level at 50 uM incubated for 3 days by propidium iodide staining based flow cytometry (reference value: 23%); format: functional
[11] = system: MCF-10A; assay: Induction of cell membrane integrity loss in immortalized human MCF10A cells assessed as PI uptake level at 100 uM incubated for 3 days by propidium iodide staining based flow cytometry (reference value: 23%); format: functional
[12] = system: MCF-10A; assay: Induction of cell membrane integrity loss in immortalized human MCF10A cells at 75 uM incubated for 3 days by propidium iodide staining based flow cytometry; format: functional
[13] = target: Mucin-1 (Homo sapiens) (UniProt P15941); assay: Inhibition of soluble unbound MUC1-CD dimerization (unknown origin) by immunoblot analysis; settings: concentration not given here
[14] = system: HCC1937; assay: Growth inhibition of human HCC1937 cells assessed as reduction in cell number up to 150 uM incubated for 3 days by MTS assay; format: functional, cell-based
[15] = target: Mucin-1 (Homo sapiens) (UniProt P15941); assay: Inhibition of MUC1 nuclear import in human MCF7 cells assessed as decrease in nuclear MUC1-C levels at 75 uM incubated for 3 days by immunoblot analysis; format: cell-based
[16] = system: MCF-10A; assay: Growth inhibition of immortalized human MCF10A cells assessed as reduction in cell number up to 100 uM incubated for 3 days by MTS assay; format: functional, cell-based
[17] = system: MCF-10A; assay: Induction of apoptosis in immortalized human MCF10A cells assessed as caspase-9 cleavage at 75 uM incubated for 3 days by immunoblot analysis; format: functional, cell-based
[18] = system: MCF7; assay: Growth inhibition in human MCF7 cells assessed as reduction in cell number at 75 uM incubated for 3 days in presence of MUC1 siRNA by MTS assay; format: functional, cell-based
[19] = system: MCF7; assay: Reduction of MUC1 mRNA levels in human MCF7 cells at 75 uM incubated for 3 days by qRT-PCR analysis; format: functional, cell-based
[20] = system: MCF7; assay: Inhibition of colony formation in human MCF7 cells assessed as decrease in colonies at 50 to 75 uM incubated for 2 weeks by crystal violet staining based assay; format: functional
[21] = system: MCF7; assay: Inhibition of colony formation in human MCF7 cells assessed as decrease in colonies at 25 uM incubated for 2 weeks by crystal violet staining based assay; format: functional, cell-based
[22] = target: Mucin-1 (Homo sapiens) (UniProt P15941); assay: Inhibition of MUC1 in human MCF7 cells assessed as decrease in MUC1 protein level in whole cell lysates at 75 uM incubated for 3 days by immunoblot analysis; format: subcellular; settings: Lysate
[23] = target: Mucin-1 (Homo sapiens) (UniProt P15941); assay: Inhibition of His-tagged MUC1-CD dimerization (unknown origin) assessed as decrease in oligomer formation incubated for 1 hr by SDS-polyacrylamide electrophoresis method based luminescence assay
[24] = system: ZR-75-1; assay: Antitumor activity against human ZR-75-1 xenografted in nu/nu mouse assessed as reduction in tumor growth at 50 mg/kg/day, ip for 7 days followed by treatment cessation and measured over next 17 days; format: functional, organism-based
[25] = system: ZR-75-1; assay: Suppression of MUC1 protein expression in tumor area of human ZR-75-1 xenografted in nu/nu mouse at 50 mg/kg/day, ip for 21 days; format: functional, organism-based
[26] = system: MCF7; assay: Induction of necrosis in human MCF7 cells at 5 uM incubated for 4 days by propidium iodide staining based flow cytometry (reference value: 5%); format: functional
[27] = system: HEK293; assay: Growth inhibition of HEK293 cells assessed as reduction in cell number up to 96 hrs; format: cell-based; settings: human, hek293, 96 h
[28] = target: Mucin-1 (Homo sapiens) (UniProt P15941); assay: Inhibition of MUC1-CD dimerization (unknown origin) expressed in HEK293 cells assessed as disruption of interaction between Flag-MUC1-CD and GFP-MUC1-CD at […] by coimmunoprecipitation assay; format: cell-based
[29] = Drug uptake in human ZR-75-1 cells assessed as mean fluorescence intensity at 5 uM using FITC-tagged peptide incubated for 2 hrs by flow cytometry (reference value: 24); format: ADME, cell-based; settings: zr-75-1, 2 h
[30] = system: MCF7; assay: Induction of necrosis in human MCF7 cells at 5 uM incubated for 3 days by propidium iodide staining based flow cytometry (reference value: 5%); format: functional
[31] = system: MCF7; assay: Induction of cell cycle arrest in human MCF7 cells assessed as accumulation at G2 phase at 5 uM incubated for 3 days by propidium iodide staining based flow cytometry (reference value: 9%); format: functional
[32] = system: MCF-10A; assay: Induction of cell cycle arrest in human MCF10A cells assessed as accumulation at S phase at 5 uM incubated for 4 days by propidium iodide staining based flow cytometry (reference value: 38%); settings: 96 h
[33] = system: ZR-75-1; assay: Induction of cell cycle arrest in human ZR-75-1 cells assessed as accumulation at G2 phase at 5 uM incubated for 4 days by propidium iodide staining based flow cytometry (reference value: 7%); format: functional
[34] = system: ZR-75-1; assay: Induction of cell cycle arrest in human ZR-75-1 cells assessed as accumulation at G1 phase at 5 uM incubated for 3 days by propidium iodide staining based flow cytometry (reference value: 64%); format: functional
[35] = system: ZR-75-1; assay: Antitumor activity against human ZR-75-1 xenografted in nu/nu mouse assessed as induction of necrosis in tumor at 50 mg/kg/day, ip for 21 days; format: functional, organism-based
[36] = system: MCF-10A; assay: Growth inhibition in human MCF10A cells assessed as reduction in cell number up to 96 hrs; format: cell-based
[37] = system: ZR-75-1; assay: Induction of cell cycle arrest in human ZR-75-1 cells assessed as accumulation at G1 phase at 5 uM incubated for 4 days by propidium iodide staining based flow cytometry (reference value: 64%); format: functional
[38] = system: ZR-75-1; assay: Growth inhibition in human ZR-75-1 cells assessed as reduction in cell number up to 96 hrs in presence of MUC1 siRNA; format: functional, cell-based
[39] = target: Mucin-1 (Homo sapiens) (UniProt P15941); assay: Inhibition of MUC1 nuclear import in human MCF7 cells assessed as decrease in nuclear MUC1-C levels at 5 uM by Western blot analysis; format: cell-based
[40] = system: ZR-75-1; assay: Induction of cell cycle arrest in human ZR-75-1 cells assessed as accumulation at S phase at 5 uM incubated for 3 days by propidium iodide staining based flow cytometry (reference value: 29%); format: functional
[41] = system: MCF7; assay: Induction of cell cycle arrest in human MCF7 cells assessed as accumulation at G1 phase at 5 uM incubated for 3 days by propidium iodide staining based flow cytometry (reference value: 70%); format: functional
[42] = system: ZR-75-1; assay: Antitumor activity against human ZR-75-1 xenografted in nu/nu mouse assessed as reduction in tumor growth at 50 mg/kg/day, ip for 7 days measured on day 7; format: functional, organism-based
[43] = Toxicity in nu/nu mouse assessed as effect on body weight at 50 mg/kg, ip for 11 days measured over next 28 days after stopping drug administration; format: organism-based; settings: in vivo, 672 h
[44] = system: ZR-75-1; assay: Induction of cell cycle arrest in human ZR-75-1 cells assessed as accumulation at S phase at 5 uM incubated for 4 days by propidium iodide staining based flow cytometry (reference value: 29%); format: functional
[45] = system: ZR-75-1; assay: Growth inhibition in human ZR-75-1 cells assessed as reduction in cell number up to 96 hrs in presence of control siRNA; format: functional, cell-based
[46] = Drug uptake in human ZR-75-1 cells assessed as mean fluorescence intensity at 5 uM using FITC-tagged peptide incubated for 6 hrs by flow cytometry (reference value: 24); format: ADME, cell-based; settings: zr-75-1, 6 h
[47] = system: MCF-10A; assay: Induction of cell cycle arrest in human MCF10A cells assessed as accumulation at S phase at 5 uM incubated for 3 days by propidium iodide staining based flow cytometry (reference value: 38%); settings: 72 h
[48] = system: ZR-75-1; assay: Effect on cellular MUC1-C levels in human ZR-75-1 cells at 5 uM using FITC-tagged peptide by Western blot analysis; format: functional, cell-based
[49] = system: MCF7; assay: Induction of cell cycle arrest in human MCF7 cells assessed as accumulation at S phase at 5 uM incubated for 3 days by propidium iodide staining based flow cytometry (reference value: 21%); format: functional
[50] = system: ZR-75-1; assay: Induction of necrosis in human ZR-75-1 cells at 5 uM incubated for 4 days by propidium iodide staining based flow cytometry (reference value: 8%); format: functional
[51] = Drug uptake in human ZR-75-1 cells assessed as mean fluorescence intensity at 5 uM using FITC-tagged peptide incubated for 24 hrs by flow cytometry (reference value: 24); format: ADME, cell-based; settings: zr-75-1, 24 h
[52] = system: ZR-75-1; assay: Induction of cell cycle arrest in human ZR-75-1 cells assessed as accumulation at G2 phase at 5 uM incubated for 3 days by propidium iodide staining based flow cytometry (reference value: 7%); format: functional
[53] = system: ZR-75-1; assay: Induction of necrosis in human ZR-75-1 cells at 5 uM incubated for 3 days by propidium iodide staining based flow cytometry (reference value: 8%); format: functional
[54] = target: Mucin-1 (Homo sapiens) (UniProt P15941); assay: Inhibition of MUC1 nuclear import in human ZR-75-1 cells assessed as decrease in nuclear MUC1-C levels at 5 uM by Western blot analysis; format: cell-based

Sequence of Mucin-1 (Homo sapiens) (P15941 24-1097 limits assumed): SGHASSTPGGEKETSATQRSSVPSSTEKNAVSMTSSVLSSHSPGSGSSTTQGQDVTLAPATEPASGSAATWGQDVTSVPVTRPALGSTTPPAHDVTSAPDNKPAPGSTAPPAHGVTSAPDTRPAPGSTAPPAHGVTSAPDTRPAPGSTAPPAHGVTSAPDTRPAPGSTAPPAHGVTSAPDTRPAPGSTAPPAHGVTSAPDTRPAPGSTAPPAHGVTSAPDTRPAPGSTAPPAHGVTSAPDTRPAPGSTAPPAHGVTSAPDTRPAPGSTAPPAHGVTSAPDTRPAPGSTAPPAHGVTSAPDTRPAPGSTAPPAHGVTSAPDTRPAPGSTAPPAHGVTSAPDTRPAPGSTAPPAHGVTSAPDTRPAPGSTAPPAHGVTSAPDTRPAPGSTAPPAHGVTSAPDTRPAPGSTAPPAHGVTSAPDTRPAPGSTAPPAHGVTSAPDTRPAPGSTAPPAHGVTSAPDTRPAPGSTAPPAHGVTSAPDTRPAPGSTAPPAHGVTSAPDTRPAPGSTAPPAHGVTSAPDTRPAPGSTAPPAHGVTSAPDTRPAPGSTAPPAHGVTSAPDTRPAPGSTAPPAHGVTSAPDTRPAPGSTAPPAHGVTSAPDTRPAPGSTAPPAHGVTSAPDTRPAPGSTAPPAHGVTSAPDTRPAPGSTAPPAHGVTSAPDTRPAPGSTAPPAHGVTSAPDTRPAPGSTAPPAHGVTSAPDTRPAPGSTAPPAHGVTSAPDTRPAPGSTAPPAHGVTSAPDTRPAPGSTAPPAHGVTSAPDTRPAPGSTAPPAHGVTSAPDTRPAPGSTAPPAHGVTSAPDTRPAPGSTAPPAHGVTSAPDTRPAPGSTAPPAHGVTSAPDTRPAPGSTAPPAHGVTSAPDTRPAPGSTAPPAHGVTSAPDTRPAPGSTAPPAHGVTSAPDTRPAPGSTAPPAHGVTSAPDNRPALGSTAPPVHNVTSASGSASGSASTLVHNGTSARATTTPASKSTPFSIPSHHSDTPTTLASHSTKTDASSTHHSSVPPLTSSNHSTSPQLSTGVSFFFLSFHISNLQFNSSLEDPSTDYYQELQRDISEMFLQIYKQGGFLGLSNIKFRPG
Sequence of Mucin-1 (Homo sapiens) (P15941 1098-1255 limits assumed): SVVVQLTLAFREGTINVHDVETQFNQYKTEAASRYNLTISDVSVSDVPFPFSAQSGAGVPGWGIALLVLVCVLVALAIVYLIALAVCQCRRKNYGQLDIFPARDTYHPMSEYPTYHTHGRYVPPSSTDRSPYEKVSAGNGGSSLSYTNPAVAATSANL

CCCc1cc2c(=O)c(-c3ccc4c(c3)OCCCO4)c(C)oc2cc1OC
inhibition [1]: > 50%

CCCCc1cc2c(=O)c(-c3cc[nH]n3)c(C)oc2cc1O
inhibition [1]: > 50%

O=c1cc(-c2ccc(O)cc2)oc2cc(O)cc(O)c12 [APIGENIN]
inhibition [2]: Active | Activity [3]: 64% | inhibition [4]: Active | Activity [5]: 98% | Activity [6]: Active | inhibition [7]: Active | inhibition [8]: Active | growth inhibition (GI) [9]: Active | Activity [10]: 81% | Activity [11]: 96% | Activity [12]: Active | inhibition [13]: 100% | growth inhibition (GI) [14]: inactive | inhibition [15]: Active | growth inhibition (GI) [16]: Active | Activity [17]: Active | growth inhibition (GI) [18]: inactive | Activity [19]: Active | inhibition (INH) [20]: 100% | inhibition [21]: Active | inhibition [22]: Active

CC[C@H](C)[C@H](NC(=O)[C@H](CC(=O)O)NC(=O)[C@H](CC(C)C)NC(=O)[C@H](CCC(N)=O)NC(=O)CNC(=O)[C@H](Cc1ccc(O)cc1)NC(=O)[C@H](CC(N)=O)NC(=O)[C@H](CCCCN)NC(=O)[C@H](CCCNC(=N)N)NC(=O)[C@H](CCCNC(=N)N)NC(=O)[C@H](CS)NC(=O)[C@H](CCC(N)=O)NC(=O)[C@H](CS)NC(=O)[C@H](CCCNC(=N)N)NC(=O)[C@@H](CCCNC(=N)N)NC(=O)[C@@H](CCCNC(=N)N)NC(=O)[C@@H](CCCNC(=N)N)NC(=O)[C@@H](CCCNC(=N)N)NC(=O)[C@@H](CCCNC(=N)N)NC(=O)[C@@H](CCCNC(=N)N)NC(=O)[C@@H](CCCNC(=N)N)NC(=O)[C@H](N)CCCNC(=N)N)C(=O)N[C@@H](Cc1ccccc1)C(=O)N1CCC[C@H]1C(=O)O
inhibition [23]: Active | Activity [24]: Active | Activity [25]: Active | Activity [26]: 44% | growth inhibition (GI) [27]: Non-Toxic | inhibition [28]: Active | Flu intensity [29]: 145 | Activity [30]: 24% | Activity [31]: 0% | Activity [32]: 42% | Activity [33]: 14% | Activity [34]: 29% | Activity [35]: Active | growth inhibition (GI) [36]: Non-Toxic | Activity [37]: 49% | growth inhibition (GI) [38]: inactive | inhibition [39]: Active | Activity [40]: 69% | Activity [41]: 54% | Activity [42]: Active | Activity [43]: Non-Toxic | Activity [44]: 37% | growth inhibition (GI) [45]: Active | Flu intensity [46]: 252 | Activity [47]: 42% | Activity [48]: inactive | Activity [49]: 46% | Activity [50]: 74% | Flu intensity [51]: 615 | Activity [52]: 2% | Activity [53]: 34% | inhibition [54]: Active

CC(=O)C(C)Oc1ccc2c(-c3ccccc3)cc(=O)oc2c1 (stereo unspecified)
inhibition [1]: > 50%

From ChEMBL document CHEMBL4420073, “Small molecule inhibitors of MUC1 and methods of identifying the same” (2015)
